# Measured values as given in publication PMC11823609, “Advancements in the fight against globally distributed OXA-48 carbapenemase: evaluating the new generation of carbapenemase inhibitors” (Antimicrobial Agents and Chemotherapy, 2025).
# Read-outs that look alike come from different tables or passages of the source.
# What was measured:
# Assay in all cases: microbe, parasite or virus in culture
# [1] = system: E. coli HB4 ΔompC/F; type: cell-based, Escherichia coli
# Summary of the method: (§1)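 Inhibitors, each fixed at 4 mg/L, were paired with ertapenem or ceftazidime as reporter antibiotics. These combinations were tested against E. coli TG1 and low-permeability HB4 transformants producing OXA-48, alone or with CTX-M-14, with triplicate MICs.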
# [2] = system: E. coli HB4 ΔompC/F (OXA-48); type: cell-based, Escherichia coli
# Summary of the method: as §1
# [3] = system: E. coli HB4 ΔompC/F (CTX-M-14); type: cell-based, Escherichia coli
# [4] = system: E. coli HB4 ΔompC/F (CTX-M-14 + OXA-48); type: cell-based, Escherichia coli
# Summary of the method: as §1
# [5] = system: K. pneumoniae strain 497 (MLST 11, No ESBL); type: cell-based; details: K. pneumoniae 497
# [6] = system: K. pneumoniae strain 170 (MLST 307, No ESBL); type: cell-based; details: K. pneumoniae 170
# Summary of the method: (§2)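 MICs were determined in triplicate against WGS-characterized OXA-48-positive clinical isolates, with EUCAST 13.0 breakpoints applied. Each inhibitor was tested at 4 mg/L combined with ertapenem or ceftazidime as reporter substrates; compounds were also tested alone.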
# [7] = system: K. pneumoniae strain 194 (MLST 392, No ESBL); type: cell-based; details: K. pneumoniae 194
# Summary of the method: as §2
# [8] = system: K. pneumoniae strain 413 (MLST 147, ESBL); type: cell-based
# Summary of the method: as §2
# [9] = system: E. coli strain 264 (MLST 131, No ESBL); type: cell-based; details: E. coli 264
# Summary of the method: as §2
# [10] = system: E. cloacae strain 281 (MLST 78, No ESBL); type: cell-based
# Summary of the method: as §2
# [11] = system: E. cloacae strain 272 (MLST 78, ESBL); type: cell-based
# Summary of the method: as §2
# [12] = system: E. coli strain 177 (MLST 131, ESBL); type: cell-based
# Summary of the method: as §2
# [13] = system: K. pneumoniae strain 237 (MLST 147, No ESBL); type: cell-based; details: K. pneumoniae 237
# Summary of the method: as §2
# [14] = system: E. coli strain 224 (MLST 127, No ESBL); type: cell-based; details: E. coli 224
# Summary of the method: as §2
# [15] = system: E. cloacae strain 235 (MLST 171, ESBL); type: cell-based
# Summary of the method: as §2
# [16] = system: E. coli strain 103 (MLST 10, ESBL); type: cell-based
# Summary of the method: as §2
# [17] = system: K. pneumoniae strain 125 (MLST 307, ESBL); type: cell-based
# Summary of the method: as §2
# [18] = system: K. pneumoniae strain 19 (MLST 11, ESBL); type: cell-based
# Summary of the method: as §2
# [19] = system: K. pneumoniae strain 23 (MLST 392, ESBL); type: cell-based
# Summary of the method: as §2
# [20] = system: K. pneumoniae strain 71 (MLST 15, No ESBL); type: cell-based; details: K. pneumoniae 71
# Summary of the method: as §2
# [21] = system: K. pneumoniae strain 238 (MLST 15, ESBL); type: cell-based
# Summary of the method: as §2
# [22] = system: E. cloacae strain 231 (MLST 171, No ESBL); type: cell-based
# Summary of the method: as §2
# [23] = Klebsiella pneumoniae, β-lactamase inhibitor alone, read-out: MIC
# [24] = Escherichia coli, β-lactamase inhibitor alone, read-out: MIC
# [25] = Enterobacter cloacae, E. cloacae 281, β-lactamase inhibitor alone, read-out: MIC
# [26] = Enterobacter cloacae, E. cloacae 231, β-lactamase inhibitor alone, read-out: MIC
# [27] = ceftazidime alone or with BLI at 4 mg/L
# [28] = Klebsiella pneumoniae, BL alone or BL/BLI: AVI, REL, TAN, DUR 4 mg/L, VAB, XER 8 mg/L, ZID, NAC 1:1, read-out: MIC
# [29] = Escherichia coli, BL alone or BL/BLI: AVI, REL, TAN, DUR 4 mg/L, VAB, XER 8 mg/L, ZID, NAC 1:1, read-out: MIC
smiles,measurement,setting,value
"NCCN[C@H]1CC[C@H](CC(=O)N[C@H]2Cc3cccc(C(=O)O)c3OB2O)CC1 [Taniborbactam, taniborbactam]",MIC,[1]; Escherichia coli,≥ 128 µg/mL
same,MIC,[2]; Escherichia coli,≥ 128 µg/mL
same,MIC,[3]; Escherichia coli,≥ 128 µg/mL
same,decrease of ertapenem MIC with BLI,"[4]; E. coli HB4 coproducing CTX-M-14 and OXA-48, BLI 4 mg/L",8 fold
same,MIC,[4]; Escherichia coli,≥ 128 µg/mL
same,MIC,[5]; [23],≥ 128 µg/mL
same,MIC,[6]; [23],≥ 128 µg/mL
same,MIC,[7]; [23],≥ 128 µg/mL
same,MIC,[8]; Klebsiella pneumoniae,≥ 128 µg/mL
same,MIC,[9]; [24],≥ 128 µg/mL
same,MIC,[10]; Enterobacter cloacae,≥ 128 µg/mL
same,MIC,[11]; Enterobacter cloacae,≥ 128 µg/mL
same,MIC,[12]; Escherichia coli,≥ 128 µg/mL
same,MIC,[13]; [23],≥ 128 µg/mL
same,MIC,[14]; [24],≥ 128 µg/mL
same,MIC,[15]; Enterobacter cloacae,≥ 128 µg/mL
same,MIC,[16]; Escherichia coli,≥ 128 µg/mL
same,MIC,[17]; Klebsiella pneumoniae,≥ 128 µg/mL
same,MIC,[18]; Klebsiella pneumoniae,≥ 128 µg/mL
same,MIC,[19]; Klebsiella pneumoniae,≥ 128 µg/mL
same,MIC,[20]; [23],≥ 128 µg/mL
same,MIC,[21]; Klebsiella pneumoniae,≥ 128 µg/mL
same,MIC,[22]; Enterobacter cloacae,≥ 128 µg/mL
"CC1=C[C@@H]2CN(C(=O)N2OS(=O)(=O)O)[C@@H]1C(N)=O [Durlobactam, durlobactam]",MIC,[1]; Escherichia coli,0.5 µg/mL
same,MIC,[2]; Escherichia coli,1 µg/mL
same,MIC,[3]; Escherichia coli,1 µg/mL
same,MIC,[4]; Escherichia coli,1 µg/mL
same,MIC,[5]; [23],2 µg/mL
same,MIC,[6]; [23],0.5 µg/mL
same,MIC,[7]; [23],1 µg/mL
same,MIC,[8]; Klebsiella pneumoniae,4 µg/mL
same,MIC,[9]; [24],0.25 µg/mL
same,MIC,[10]; [25],4 µg/mL
same,MIC,[11]; Enterobacter cloacae,1 µg/mL
same,MIC,[12]; Escherichia coli,2 µg/mL
same,MIC,[13]; [23],0.5 µg/mL
same,MIC,[14]; [24],0.25 µg/mL
same,MIC,[15]; Enterobacter cloacae,4 µg/mL
same,MIC,[16]; Escherichia coli,0.25 µg/mL
same,MIC,[17]; Klebsiella pneumoniae,2 µg/mL
same,MIC,[18]; Klebsiella pneumoniae,2 µg/mL
same,MIC,[19]; Klebsiella pneumoniae,0.5 µg/mL
same,MIC,[20]; [23],2 µg/mL
same,MIC,[21]; Klebsiella pneumoniae,0.5 µg/mL
same,MIC,[22]; [26],1 µg/mL
"NCCONC(=O)[C@@H]1CC[C@@H]2CN1C(=O)N2OS(=O)(=O)O [Nacubactam, nacubactam]",MIC,[1]; Escherichia coli,2 µg/mL
same,MIC,[2]; Escherichia coli,2 µg/mL
same,MIC,[3]; Escherichia coli,2 µg/mL
same,MIC,[4]; Escherichia coli,2 µg/mL
same,MIC,[5]; [23],≥ 128 µg/mL
same,MIC,[6]; [23],4 µg/mL
same,MIC,[7]; [23],2 µg/mL
same,MIC,[8]; Klebsiella pneumoniae,≥ 128 µg/mL
same,MIC,[9]; [24],1 µg/mL
same,MIC,[10]; [25],4 µg/mL
same,MIC,[11]; Enterobacter cloacae,4 µg/mL
same,MIC,[12]; Escherichia coli,8 µg/mL
same,MIC,[13]; [23],1 µg/mL
same,MIC,[14]; [24],8 µg/mL
same,MIC,[15]; Enterobacter cloacae,8 µg/mL
same,MIC,[16]; Escherichia coli,2 µg/mL
same,MIC,[17]; Klebsiella pneumoniae,≥ 128 µg/mL
same,MIC,[18]; Klebsiella pneumoniae,≥ 128 µg/mL
same,MIC,[19]; Klebsiella pneumoniae,2 µg/mL
same,MIC,[20]; [23],16 µg/mL
same,MIC,[21]; Klebsiella pneumoniae,16 µg/mL
same,MIC,[22]; [26],1 µg/mL
"CC(C)(O/N=C(\C(=O)N[C@@H]1C(=O)N2C(C(=O)[O-])=C(C[n+]3ccccc3)CS[C@H]12)c1csc(N)n1)C(=O)O [CAZ, ceftazidime]",MIC,"[1]; E. coli HB4 ΔompC/F, ceftazidime alone or with BLI at 4 mg/L",1 µg/mL
same,MIC,[1]; Escherichia coli,1 µg/mL
same,MIC,"[2]; E. coli HB4 ΔompC/F (OXA-48), ceftazidime alone or with BLI at 4 mg/L",1 µg/mL
same,MIC,[2]; Escherichia coli,1 µg/mL
same,MIC,"[3]; E. coli HB4 ΔompC/F (CTX-M-14), ceftazidime alone or with BLI at 4 mg/L",16 µg/mL
same,MIC,[3]; Escherichia coli,16 µg/mL
same,MIC,"[4]; E. coli HB4 ΔompC/F (CTX-M-14 + OXA-48), ceftazidime alone or with BLI at 4 mg/L",16 µg/mL
same,MIC,[4]; Escherichia coli,16 µg/mL
same,MIC,[5]; [27],0.5 µg/mL
same,MIC,[5]; [28],0.5 µg/mL
same,MIC,[6]; [27],0.5 µg/mL
same,MIC,[6]; [28],0.5 µg/mL
same,MIC,[7]; [27],0.5 µg/mL
same,MIC,[7]; [28],0.5 µg/mL
same,MIC,"[8]; K. pneumoniae 413, ceftazidime alone or with BLI at 4 mg/L",32 µg/mL
same,MIC,[8]; Klebsiella pneumoniae,32 µg/mL
same,MIC,[9]; [27],0.25 µg/mL
same,MIC,[9]; [29],0.25 µg/mL
same,MIC,"[10]; E. cloacae 281, ceftazidime alone or with BLI at 4 mg/L",0.5 µg/mL
same,MIC,"[10]; Enterobacter cloacae, E. cloacae 281, BL alone or BL/BLI: AVI, REL, TAN, DUR 4 mg/L, VAB, XER 8 mg/L, ZID, NAC 1:1, read-out: MIC",0.5 µg/mL
same,MIC,"[11]; E. cloacae 272, ceftazidime alone or with BLI at 4 mg/L",≥256 µg/mL
same,MIC,[11]; Enterobacter cloacae,≥ 256 µg/mL
same,MIC,"[12]; E. coli 177, ceftazidime alone or with BLI at 4 mg/L",128 µg/mL
same,MIC,[12]; Escherichia coli,128 µg/mL
same,MIC,[13]; [27],0.25 µg/mL
same,MIC,[13]; [28],0.25 µg/mL
same,MIC,[14]; [27],0.25 µg/mL
same,MIC,[14]; [29],0.25 µg/mL
same,MIC,"[15]; E. cloacae 235, ceftazidime alone or with BLI at 4 mg/L",128 µg/mL
same,MIC,[15]; Enterobacter cloacae,128 µg/mL
same,MIC,"[16]; E. coli 103, ceftazidime alone or with BLI at 4 mg/L",4 µg/mL
same,MIC,[16]; Escherichia coli,4 µg/mL
same,MIC,"[17]; K. pneumoniae 125, ceftazidime alone or with BLI at 4 mg/L",64 µg/mL
same,MIC,[17]; Klebsiella pneumoniae,64 µg/mL
same,MIC,"[18]; K. pneumoniae 19, ceftazidime alone or with BLI at 4 mg/L",32 µg/mL
same,MIC,[18]; Klebsiella pneumoniae,32 µg/mL
same,MIC,"[19]; K. pneumoniae 23, ceftazidime alone or with BLI at 4 mg/L",128 µg/mL
same,MIC,[19]; Klebsiella pneumoniae,128 µg/mL
same,MIC,[20]; [27],0.5 µg/mL
same,MIC,[20]; [28],0.5 µg/mL
same,MIC,"[21]; K. pneumoniae 238, ceftazidime alone or with BLI at 4 mg/L",32 µg/mL
same,MIC,[21]; Klebsiella pneumoniae,32 µg/mL
same,MIC,"[22]; E. cloacae 231, ceftazidime alone or with BLI at 4 mg/L",1 µg/mL
same,MIC,"[22]; Enterobacter cloacae, E. cloacae 231, BL alone or BL/BLI: AVI, REL, TAN, DUR 4 mg/L, VAB, XER 8 mg/L, ZID, NAC 1:1, read-out: MIC",1 µg/mL
